Test results as given in ChEMBL document CHEMBL1133397, “Fused bicyclic Gly-Asp beta-turn mimics with potent affinity for GPIIb-IIIa. Exploration of the arginine isostere” (Bioorg Med Chem Lett, 2000).

Tests used:
Homo sapiens = species on record: Homo sapiens; test: The compound was evaluated for reduction of ADP-induced human platelet aggregation response by 50% using PRP assay; format: functional, organism-based
[1] = target: Integrin alpha-IIb/beta-3 (Homo sapiens, UniProt P05106+P08514); test: Inhibition of fibrinogen binding to purified human GPIIb-IIIa in ELISA; format: protein-complex assay
Chain of Integrin alpha-IIb/beta-3 (P05106 27-788 limits assumed): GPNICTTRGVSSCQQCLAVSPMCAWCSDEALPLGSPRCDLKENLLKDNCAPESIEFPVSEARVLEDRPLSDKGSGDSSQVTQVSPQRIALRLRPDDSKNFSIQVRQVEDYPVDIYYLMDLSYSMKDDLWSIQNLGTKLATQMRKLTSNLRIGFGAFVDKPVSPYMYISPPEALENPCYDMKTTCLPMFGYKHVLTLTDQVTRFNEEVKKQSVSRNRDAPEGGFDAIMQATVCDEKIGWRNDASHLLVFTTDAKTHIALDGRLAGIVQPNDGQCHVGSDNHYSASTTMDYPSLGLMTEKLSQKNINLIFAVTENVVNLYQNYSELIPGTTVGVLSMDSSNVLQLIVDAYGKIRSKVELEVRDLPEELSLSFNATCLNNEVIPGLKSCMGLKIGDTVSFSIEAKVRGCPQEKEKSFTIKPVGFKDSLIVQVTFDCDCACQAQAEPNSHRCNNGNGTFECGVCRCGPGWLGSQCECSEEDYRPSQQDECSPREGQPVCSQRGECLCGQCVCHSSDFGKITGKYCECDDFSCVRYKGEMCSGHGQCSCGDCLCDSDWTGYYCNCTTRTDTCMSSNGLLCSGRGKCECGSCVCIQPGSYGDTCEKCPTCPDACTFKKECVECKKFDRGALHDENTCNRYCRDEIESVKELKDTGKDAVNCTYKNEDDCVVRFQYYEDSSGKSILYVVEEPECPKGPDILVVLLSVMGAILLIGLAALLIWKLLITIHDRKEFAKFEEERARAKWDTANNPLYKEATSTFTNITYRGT
Chain of Integrin alpha-IIb/beta-3 (P08514 32-887 limits assumed): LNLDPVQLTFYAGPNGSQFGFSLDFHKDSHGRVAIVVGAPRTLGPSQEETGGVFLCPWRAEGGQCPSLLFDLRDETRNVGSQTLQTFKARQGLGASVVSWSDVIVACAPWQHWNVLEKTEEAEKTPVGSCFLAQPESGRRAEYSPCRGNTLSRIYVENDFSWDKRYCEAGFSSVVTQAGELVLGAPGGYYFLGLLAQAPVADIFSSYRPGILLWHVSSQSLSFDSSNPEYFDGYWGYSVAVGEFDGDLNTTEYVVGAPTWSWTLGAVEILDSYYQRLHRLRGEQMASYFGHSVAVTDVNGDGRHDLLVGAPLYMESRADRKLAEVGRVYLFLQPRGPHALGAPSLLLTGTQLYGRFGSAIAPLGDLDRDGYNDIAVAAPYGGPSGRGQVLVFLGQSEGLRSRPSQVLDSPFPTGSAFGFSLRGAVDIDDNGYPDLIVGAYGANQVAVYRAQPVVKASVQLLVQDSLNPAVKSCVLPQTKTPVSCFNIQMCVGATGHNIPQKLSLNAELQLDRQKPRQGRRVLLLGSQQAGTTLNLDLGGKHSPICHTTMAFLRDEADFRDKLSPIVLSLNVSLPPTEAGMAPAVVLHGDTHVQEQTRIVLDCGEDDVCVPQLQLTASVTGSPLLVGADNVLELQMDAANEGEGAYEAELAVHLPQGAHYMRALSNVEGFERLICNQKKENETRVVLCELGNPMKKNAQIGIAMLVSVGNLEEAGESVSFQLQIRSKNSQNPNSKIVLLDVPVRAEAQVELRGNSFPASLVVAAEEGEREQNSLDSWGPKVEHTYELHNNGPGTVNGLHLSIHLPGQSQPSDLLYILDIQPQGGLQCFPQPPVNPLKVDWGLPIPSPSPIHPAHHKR
Chain of Integrin alpha-IIb/beta-3 (P08514 891-1039 limits assumed): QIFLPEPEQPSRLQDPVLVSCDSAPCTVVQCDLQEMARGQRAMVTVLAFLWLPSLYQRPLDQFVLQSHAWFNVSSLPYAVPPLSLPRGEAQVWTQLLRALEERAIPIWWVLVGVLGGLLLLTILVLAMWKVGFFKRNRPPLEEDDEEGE

[2] = Blood level after a 10 mg/kg oral dose in rat expressed as Cmax was determined; format: ADME, organism-based; parameters: dose 10 mg/kg, route oral
[3] = Blood level after a 10 mg/kg oral dose in rat expressed as AUC was determined; format: ADME, organism-based; parameters: dose 10 mg/kg, route oral

## N=C(N)c1cc(F)c(C(=O)Nc2ccc3c(c2)CCC(CC(=O)O)C3=O)c(F)c1 (configuration not stated)
Homo sapiens
  IC50: 240 nM
[1]
  IC50: 5 nM
[2]
  Cmax: 2020 ng/mL
[3]
  AUC: 6410 ng·h/mL

## N=C(N)c1ccc(C(=O)Nc2ccc3c(c2)CCC(CC(=O)O)C3=O)c(Cl)c1 (configuration not stated)
Homo sapiens
  IC50: 400 nM
[2]
  Cmax: 3110 ng/mL
[3]
  AUC: 10400 ng·h/mL

## O=C(O)CC1CCc2cc(NC(=O)CCC3CCNCC3)ccc2C1=O (configuration not stated)
Homo sapiens
  IC50: 910 nM
[1]
  IC50: 71 nM

## N=C(N)c1ccc(C(=O)Nc2ccc3c(c2)CCC(CC(=O)O)C3=O)cn1 (configuration not stated)
Homo sapiens
  IC50: 220 nM
[1]
  IC50: 9 nM
[2]
  Cmax: 1170 ng/mL
[3]
  AUC: 3560 ng·h/mL

## N=C(N)c1ccc(C(=O)Nc2ccc3c(c2)CCC(CC(=O)O)C3=O)s1 (configuration not stated)
Homo sapiens
  IC50: 9000 nM
[1]
  IC50: 210 nM

## O=C(O)CC1CCc2cc(NC(=O)/C=C/C3CCNCC3)ccc2C1=O (configuration not stated)
Homo sapiens
  IC50: 360 nM
[1]
  IC50: 26 nM
[2]
  Cmax: 2700 ng/mL
[3]
  AUC: 8140 ng·h/mL

## O=C(O)CC1CCc2cc(NC(=O)OCC3CCNCC3)ccc2C1=O (configuration not stated)
Homo sapiens
  IC50: 1800 nM
[1]
  IC50: 330 nM

## N=C(N)c1ccc(C(=O)Nc2ccc3c(c2)CCC(CC(=O)O)C3=O)cc1 (configuration not stated)
[2]
  Cmax: 3630 ng/mL
[3]
  AUC: 11200 ng·h/mL

## N=C(N)c1ccc(C(=O)Nc2ccc3c(c2)CCC(CC(=O)O)C3=O)c(C(F)(F)F)c1 (configuration not stated)
Homo sapiens
  IC50: 2000 nM
[1]
  IC50: 72 nM

## O=C(O)CC1CCc2cc(NC(=O)COC3CCNCC3)ccc2C1=O (configuration not stated)
Homo sapiens
  IC50: 18000 nM

## O=C(O)CC1CCc2cc(NCCCC3CCNCC3)ccc2C1=O (configuration not stated)
Homo sapiens
  IC50: 5500 nM
[1]
  IC50: 610 nM

## N=C(N)c1ccc(C(=O)Nc2ccc3c(c2)CCC(CC(=O)O)C3=O)c(F)c1 (configuration not stated)
Homo sapiens
  IC50: 100 nM
[1]
  IC50: 3 nM
[2]
  Cmax: 4020 ng/mL
[3]
  AUC: 11900 ng·h/mL
